# Patent publication US6924314B2, “Compounds for the treatment of metabolic disorders” (Wellstat Therapeutics Corporation, priority 2001, dated 2005)
# Key:
# [1] = tested on: ob/ob obese diabetic mice; experiment: Acute hypoglycemic effect in ob/ob obese diabetic mice: Experiment 1; type: in vivo; conditions: single oral dose by gavage, 6 hours
# Description: Male ob/ob diabetic mice were randomized into groups of five animals each. Body weights were 50-55 g and blood glucose was approximately 300 mg/dL in the fed state. A single oral dose of a test substance suspended in 0.5% carboxymethylcellulose vehicle was administered by gavage. Blood glucose was measured in blood droplets obtained by nicking a tail vein with a razor using glucometer test strips and a Glucometer Elite XL device (Bayer) at 0, 0.5, 2, 4, 6 and 18 hours after the initial dosing. A 10% reduction in blood glucose versus oral vehicle is considered a positive screening result. Blood glucose reductions were generally maximal at 6 hours after drug administration.
# [2] = tested on: mice with severe insulin-dependent diabetes; experiment: Mortality in severe insulin-dependent diabetes (multiple high doses of STZ); type: in vivo; conditions: STZ 75 mg/kg i.p. x5 balb/C mice, 30 mg/kg/day oral, after three weeks of daily treatment
# Description: Female balb/C mice (19 wks of age at start of experiment) were challenged with multiple high doses of STZ (75 mg/kg i.p. on 5 consecutive days). Animals were then divided in two groups (20 mice/group) matched for severity of diabetes. Four days after the last dose of STZ, treatments were initiated. One group received Vehicle (0.4 ml of 0.75% HPMC, p.o.), and the other group received oral COMPOUND AA (30 mg/kg/day). After three weeks of daily treatment, cumulative mortality in the Vehicle Control group was 19/20 mice. In contrast, only 5/20 of the COMPOUND AA mice died during this time.
# [3] = tested on: high fat-fed C57Bl/6J mice; experiment: Circulating triglycerides, free fatty acids, insulin and leptin in high fat-fed C57Bl/6J mice; type: in vivo; conditions: for Free Fatty Acids / Triglycerides: after 2 weeks of drug treatments
# Excerpt: The high fat-fed mouse is a model for the hypertriglyceridemia and high circulating fatty acid levels, and the insulin and leptin resistance that are found in people at risk for and with obesity, diabetes, cardiovascular disease and other disorders. Male C57Bl/6J mice, approximately 8 weeks of age, were randomly assigned into groups of 6 animals. […] Mice were fed a high-fat diet (diet number D12451, containing 45% of calories as fat (Research Diets, New Brunswick, N.J.)) for 6 weeks. […]
# db/db mice [4] = experiment: Antidiabetic effects in db/db mice, 2 weeks (Example J); type: in vivo, C57BL/Ksola mice
# Excerpt: (§1) db/db mice have a defect in leptin signaling, leading to hyperphagia, obesity and diabetes. Moreover, unlike ob/ob mice on a C57BL/6J background, db/db mice on a C57BL/KS background undergo failure of their insulin-producing pancreatic islet cells, resulting in progression from hyperinsulinemia (associated with peripheral insulin resistance) to hypoinsulinemic diabetes.
# (§2) A minimum of 7 days was allowed for adaptation after arrival.
# (§3) Treatment cohorts were given daily oral doses of Vehicle (1% hydroxypropylmethylcellulose), Compounds BI, BS, BT, BU, BV or Fenofibrate for 2 weeks. At the end of the treatment period 100 μl of venous blood was withdrawn in a heparinized capillary tube from the retro-orbital sinus of db/db mice for serum chemistry analysis.
# db/db mice [5] = experiment: Antidiabetic effects in db/db mice, second experiment, 8 weeks of treatment; type: in vivo
# Excerpt: Blood samples were obtained via the retro-orbital sinus for serum chemistry analysis, or via the tail vein for glucose measurement with a test strip and glucometer.
# Groups consisted of 6-8 mice each.
# [6] = tested on: Zucker Diabetic Fatty (ZDF) rats; experiment: Attenuation of cataractogenesis in Zucker Diabetic Fatty (ZDF) rats; type: in vivo; conditions: 100 mg/kg daily oral, 10 weeks
# Excerpt: Cataracts are one of the leading causes of progressive vision decline and blindness associated with ageing and diabetes, and the Zucker diabetic fatty (ZDF) model has many similarities with human cataractogenesis, including biochemical changes and oxidative stress in the lens. These rats, however, undergo cataractogenesis typically between 14-16 weeks of age.
# Male ZDF rats and their aged-match Zucker lean (ZL) counterparts (fa/+ or +/+) were obtained from Genetic Models, Inc. (Indianapolis, Ind.) aged 12 weeks and acclimatized for 1 week prior to study. […] Treatment cohorts were given a daily oral dose of vehicle and 100 mg/kg of BI or BH for 10 weeks. […] At the end of the treatment period 100 μl of venous blood was collected (usually 10:00 A.M.) in a heparinized tube from the tail vein for serum chemistry analysis (Anilytics, Inc., Gaithersburg, Md.). […] Plasma insulin was measured by an electrochemiluminescent immunoassay, ECL (Origen Analyzer, Igen, Inc., Gaithersburg, Md.). The animals were sacrificed and tissues and/or organs (lens and liver) were extirpated, weighed (wet weight) and processed for biochemical analyses. Malondialdehyde (MDA), a major product of lipid peroxidation was assayed in lenses according to Ohkawa et al (1979), Analytical Biochem 95, 351-358).
# db/db mice [7] = experiment: Antidiabetic effects in db/db mice, 2 weeks (Example I); type: in vivo, C57BL/Ksola mice; conditions: for Glucose / Glucose (% of Control): nonfasting; for Free Fatty Acids ± SEM / Triglycerides ± SEM: serum
# Excerpt: as §1, with “islet β” for “islet”
# as §2
# as §3, with “of” for “of Vehicle”, “BO, BP, BQ” for “BS, BT, BU, BV”, “BR” for “Fenofibrate”
# [8] = nonfasting, 100 mg/kg daily oral
# [9] = serum, daily oral, dose per Table 12: 100 mg/kg
# [10] = 150 mg/kg, 8 weeks of treatment
compound,measurement,setting,value
"O=C(O)CCC(=O)c1ccc(OCc2ccccc2F)cc1 [Compound AA, 4-(4-(2-Fluorobenzyloxy)phenyl)-4-oxobutyric acid]",% Reduction vs Control,[1],−18.5 ± 8.4%
same,Blood Glucose after 6 hours,[1],242 ± 25 mg/dL
same,cumulative mortality,[2],5/20
"Cc1cccc(C)c1COc1cccc(C(=O)CCC(=O)O)c1 [Compound BI, 4-(3-(2,6-Dimethylbenzyloxy)phenyl)-4-oxobutyric acid]",Free Fatty Acids,[3]; 10 mg/kg oral gavage,1227 ± 193.7 µmol/L
same,Triglycerides,[3]; 10 mg/kg oral gavage,68.8 ± 5.7 mg/dL
same,Free Fatty Acids,[3]; 30 mg/kg oral gavage,1292 ± 231.4 µmol/L
same,Triglycerides,[3]; 30 mg/kg oral gavage,66.5 ± 14.7 mg/dL
same,Free Fatty Acids,[3]; 100 mg/kg oral gavage,992.8 ± 172.1 µmol/L
same,Triglycerides,[3]; 100 mg/kg oral gavage,37.4 ± 8.3 mg/dL
same,serum triglycerides and free fatty acids,[3]; oral gavage,effective at lowering
same,insulin serum levels,"[3]; oral gavage, after 4 weeks of drug treatments (FIG. 1)",effective at lowering
same,leptin serum levels,"[3]; oral gavage, after 4 weeks of drug treatments (FIG. 2)",effective at lowering
same,Glucose,db/db mice [4]; [8],347.0 ± 43.1 mg/dL
same,Glucose (% of Control),db/db mice [4]; [8],50 ± 6 % of Control
same,Free Fatty Acids ± SEM,db/db mice [4]; [9],1997.2 ± 196.4 µM
same,Triglycerides ± SEM,db/db mice [4]; [9],77.8 ± 5.3 mg/dL
same,Glucose,db/db mice [5]; [10],254 ± 30 mg/dL
same,Triglycerides,db/db mice [5]; [10],99 ± 8 mg/dL
same,blood glucose and triglycerides compared to vehicle-treated controls,db/db mice [5]; after 8 weeks of treatment,significantly lower
same,% Protection Left Eye,[6],50%
same,% Protection Right Eye,[6],83%
same,Cataract Formation Left Eye,[6],3/6
same,Cataract Formation Right Eye,[6],1/6
same,Lenticular MDA,[6]; means ± SEM,0.8 ± 0.1 nmol/g lens
same,Size (mm) Left Lens,[6]; means ± SEM,3.4 ± 0.2 mm
same,Size (mm) Right Lens,[6]; means ± SEM,3.8 ± 0.1 mm
same,Weight (mg) Left Lens,[6]; means ± SEM,38.1 ± 7.3 mg
same,Weight (mg) Right Lens,[6]; means ± SEM,54.9 ± 1.2 mg
same,Glucose,db/db mice [7]; 100 mg/kg daily oral,423 ± 53 mg/dL
same,Glucose (% of Control),db/db mice [7]; 100 mg/kg daily oral,67 ± 8 % of Control
same,Glucose,db/db mice [7]; 150 mg/kg daily oral,279 ± 35 mg/dL
same,Glucose (% of Control),db/db mice [7]; 150 mg/kg daily oral,44 ± 6 % of Control
same,Free Fatty Acids ± SEM,db/db mice [7]; 100 mg/kg daily oral,2999.9 ± 98.7 µM
same,Triglycerides ± SEM,db/db mice [7]; 100 mg/kg daily oral,134.0 ± 13.1 mg/dL
same,Free Fatty Acids ± SEM,db/db mice [7]; 150 mg/kg daily oral,2234.0 ± 162.6 µM
same,Triglycerides ± SEM,db/db mice [7]; 150 mg/kg daily oral,103.6 ± 8.3 mg/dL
